Test system: PANC-1 tumor model
Assay: Tissue distribution in nude mice (PANC-1 tumor model)
Assay type: in vivo, BALB/c nu/nu mice
Settings: nude mice (PANC-1 tumor model)
Experimental: BALB/c nu/nu mice (male, 5 weeks old) were purchased from Japan SLC (Shizuoka, Japan) and subcutaneously transplanted at a density of 1 × 10^7 cells/mouse. PANC-1 cells that reached the logarithmic growth phase were transplanted subcutaneously by mixing a 1 × 10^8 cells/mL cell suspension with an equivalent volume of Matrigel (Corning, Corning, NY, USA) to obtain 1 × 10^7 cells per mouse. Experiments were performed after the size of the transplanted tumor had exceeded 50 mm^3. The doses in the distribution experiments were as follows: ^211At-AAMT-OH-L (0.501 ± 0.011 MBq/mouse, 19.91 ± 0.59 g, n = 3) and ^211At-AAMT-O-Me-L (0.384 ± 0.003 MBq/mouse, 19.18 ± 0.38 g, n = 6 for Table 3), ^211At-AAMT-O-Me-L (158.10 ± 2.94 kBq/mouse, 19.27 ± 0.64 g, n = 6) and ^211At-AAMT-O-Me-D (135.08 ± 2.35 kBq/mouse, 18.64 ± 0.97 g, n = 6), ^211At-AAMT-O-Et-L (0.682 ± 0.011 MBq/mouse, 20.25 ± 1.41 g, n = 6), ^211At-AAMT-O-Pr-L (0.927 ± 0.020 MBq/mouse, 21.74 ± 0.37 g, n = 6).

C[C@](N)(Cc1ccc(O)c([211At])c1)C(=O)O [^211At-AAMT-OH-L, 3-[^211At] Astato-α-methyl-L-tyrosine]
Tissue distribution, Bladder (24 h after injection): 1.01 ± 0.10 %ID/g | Tissue distribution, Blood (24 h after injection): 0.04 ± 0.02 %ID/g | Tissue distribution, Bone (24 h after injection): 4.29 ± 3.90 %ID/g | Tissue distribution, Brain (24 h after injection): 0.68 ± 0.16 %ID/g | Tissue distribution, Cecum (24 h after injection): 6.60 ± 2.78 %ID/g | Tissue distribution, Colon (24 h after injection): 1.03 ± 0.34 %ID/g | Tissue distribution, Heart (24 h after injection): 2.29 ± 1.20 %ID/g | Tissue distribution, Kidney (24 h after injection): 0.07 ± 0.02 %ID/g | Tissue distribution, Liver (24 h after injection): 1.02 ± 0.60 %ID/g | Tissue distribution, Lung (24 h after injection): 1.90 ± 0.55 %ID/g | Tissue distribution, Pancreas (24 h after injection): 2.39 ± 2.03 %ID/g | Tissue distribution, Salivary glands (24 h after injection): 0.42 ± 0.17 %ID/g | Tissue distribution, Small intestine (24 h after injection): 0.09 ± 0.01 %ID/g | Tissue distribution, Spleen (24 h after injection): 0.72 ± 0.22 %ID/g | Tissue distribution, Stomach (24 h after injection): 1.84 ± 0.81 %ID/g | Tissue distribution, Testis (24 h after injection): 0.57 ± 0.44 %ID/g | Tissue distribution, Thyroid (24 h after injection): 11.65 ± 4.36 %ID/g | Tissue distribution, Tumor (24 h after injection): 0.71 ± 0.46 %ID/g | Amount remaining in cecum relative to ^211At-AAMT-O-Me-L (after 24 h): 3.2 fold | Amount remaining in femur, including the bone marrow, relative to ^211At-AAMT-O-Me-L (after 24 h): 5.7 fold | Amount remaining in pancreas relative to ^211At-AAMT-O-Me-L (after 24 h): 4.1 fold | Amount remaining in thyroid relative to ^211At-AAMT-O-Me-L (after 24 h): 5.2 fold

— publication PMC11594329, “Development of LAT1-Selective Nuclear Medicine Therapeutics Using Astatine-211” (International Journal of Molecular Sciences, 2024)
